Data published in PubChem BioAssay AID2060615 (Molecular Pharmacology Branch, DTP, NCI, 2025).

Tested on: 496974-208-R-J2-PDC complex spheroids, growth % test/control
Assay: Anticancer human tumor 496974-208-R-J2-PDC patient-derived pancreatic carcinoma cell line growth inhibition [CLK]
Details: for IC50: curve of first compound; for viability, T/C: stronger effect = lower value
Outline: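 Patient-derived tumor cells grown as complex spheroids with HUVEC endothelial cells and mesenchymal stem cells, treated with drug combinations. Concentrations descend in half-log steps from near clinical Cmax, or from 10 microM if Cmax unknown.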

[1] = second compound 0.0316 µM, first compound 0.0316 µM
[2] = second compound 0.0316 µM, first compound 0.1 µM
[3] = second compound 0.0316 µM, first compound 0.316 µM
[4] = second compound 0.0316 µM, first compound 1 µM
[5] = second compound 0.1 µM, first compound 0.0316 µM
[6] = second compound 0.1 µM, first compound 0.1 µM
[7] = second compound 0.1 µM, first compound 0.316 µM
[8] = second compound 0.1 µM, first compound 1 µM
[9] = second compound 0.316 µM, first compound 0.0316 µM
[10] = second compound 0.316 µM, first compound 0.1 µM
[11] = second compound 0.316 µM, first compound 0.316 µM
[12] = second compound 0.316 µM, first compound 1 µM
[13] = second compound 1 µM, first compound 0.0316 µM
[14] = second compound 1 µM, first compound 0.1 µM
[15] = second compound 1 µM, first compound 0.316 µM
[16] = second compound 1 µM, first compound 1 µM
[17] = second compound 3.16 µM, first compound 0.0316 µM
[18] = second compound 3.16 µM, first compound 0.1 µM
[19] = second compound 3.16 µM, first compound 0.316 µM
[20] = second compound 3.16 µM, first compound 1 µM
[21] = second compound 10 µM, first compound 0.0316 µM
[22] = second compound 10 µM, first compound 0.1 µM
[23] = second compound 10 µM, first compound 0.316 µM
[24] = second compound 10 µM, first compound 1 µM
[25] = second compound 0.0316 µM, first compound 3.16 µM
[26] = second compound 0.0316 µM, first compound 10 µM
[27] = second compound 0.1 µM, first compound 3.16 µM
[28] = second compound 0.1 µM, first compound 10 µM
[29] = second compound 0.316 µM, first compound 3.16 µM
[30] = second compound 0.316 µM, first compound 10 µM
[31] = second compound 1 µM, first compound 3.16 µM
[32] = second compound 1 µM, first compound 10 µM
[33] = second compound 3.16 µM, first compound 3.16 µM
[34] = second compound 3.16 µM, first compound 10 µM
[35] = second compound 10 µM, first compound 3.16 µM
[36] = second compound 10 µM, first compound 10 µM
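Also: spheroids exposed to the drugs for 7 days before readout.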
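For viability, T/C in this document: 100% = DMSO vehicle control wells.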

CCc1c2c(nc3ccc(O)cc13)-c1cc3c(c(=O)n1C2)COC(=O)[C@]3(O)CC + CNC(=O)c1ccc(Nc2nc(OC3CCCC3)c3c(-c4ccc5nc(C)oc5c4)c[nH]c3n2)c(OC)c1
IC50 (second compound 0.0316 µM): 15.2 nM
IC50 (second compound 0.1 µM): 12.7 nM
IC50 (second compound 0.316 µM): 12.6 nM
IC50 (second compound 1 µM): 11.2 nM
IC50 (second compound 3.16 µM): 4.84 nM
IC50 (second compound 10 µM): < 3.16 nM
viability, T/C (second compound 0.0316 µM, first compound 0.00316 µM): 70.7%
viability, T/C (second compound 0.0316 µM, first compound 0.01 µM): 56.9%
viability, T/C [1]: 38.6%
viability, T/C [2]: 19%
viability, T/C [3]: 12.1%
viability, T/C [4]: 3.81%
viability, T/C (second compound 0.1 µM, first compound 0.00316 µM): 67.8%
viability, T/C (second compound 0.1 µM, first compound 0.01 µM): 54%
viability, T/C [5]: 36%
viability, T/C [6]: 21.2%
viability, T/C [7]: 9.65%
viability, T/C [8]: 2.79%
viability, T/C (second compound 0.316 µM, first compound 0.00316 µM): 69.8%
viability, T/C (second compound 0.316 µM, first compound 0.01 µM): 53.5%
viability, T/C [9]: 35%
viability, T/C [10]: 19.2%
viability, T/C [11]: 7.42%
viability, T/C [12]: 3.21%
viability, T/C (second compound 1 µM, first compound 0.00316 µM): 60.5%
viability, T/C (second compound 1 µM, first compound 0.01 µM): 52.6%
viability, T/C [13]: 31.2%
viability, T/C [14]: 13.5%
viability, T/C [15]: 5.29%
viability, T/C [16]: 2.81%
viability, T/C (second compound 3.16 µM, first compound 0.00316 µM): 54.4%
viability, T/C (second compound 3.16 µM, first compound 0.01 µM): 42.6%
viability, T/C [17]: 25.6%
viability, T/C [18]: 12.9%
viability, T/C [19]: 4.63%
viability, T/C [20]: 2.2%
viability, T/C (second compound 10 µM, first compound 0.00316 µM): 50%
viability, T/C (second compound 10 µM, first compound 0.01 µM): 38.9%
viability, T/C [21]: 24.4%
viability, T/C [22]: 11.9%
viability, T/C [23]: 3.68%
viability, T/C [24]: 6.41%

COc1cccc2c1C(=O)c1c(O)c3c(c(O)c1C2=O)CC(O)(C(=O)CO)CC3OC1CC(N)C(O)C(C)O1 (stereo not drawn) + CNC(=O)c1ccc(Nc2nc(OC3CCCC3)c3c(-c4ccc5nc(C)oc5c4)c[nH]c3n2)c(OC)c1
IC50 (second compound 0.0316 µM): 185 nM
IC50 (second compound 0.1 µM): 177 nM
IC50 (second compound 0.316 µM): 191 nM
IC50 (second compound 1 µM): 115 nM
IC50 (second compound 3.16 µM): 103 nM
IC50 (second compound 10 µM): 53.6 nM
viability, T/C [1]: 70.4%
viability, T/C [2]: 62.2%
viability, T/C [3]: 38.3%
viability, T/C [4]: 3.78%
viability, T/C [25]: 0.62%
viability, T/C [26]: 0.49%
viability, T/C [5]: 67.5%
viability, T/C [6]: 66.1%
viability, T/C [7]: 33.8%
viability, T/C [8]: 3.28%
viability, T/C [27]: 0.77%
viability, T/C [28]: 2.66%
viability, T/C [9]: 68%
viability, T/C [10]: 68.3%
viability, T/C [11]: 36.2%
viability, T/C [12]: 3.12%
viability, T/C [29]: 0.68%
viability, T/C [30]: 0.3%
viability, T/C [13]: 68%
viability, T/C [14]: 52.9%
viability, T/C [15]: 22.5%
viability, T/C [16]: 1.15%
viability, T/C [31]: 2.86%
viability, T/C [32]: 3.97%
viability, T/C [17]: 57.9%
viability, T/C [18]: 50.7%
viability, T/C [19]: 18.4%
viability, T/C [20]: 1.62%
viability, T/C [33]: 0.55%
viability, T/C [34]: 0.42%
viability, T/C [21]: 57.8%
viability, T/C [22]: 40.5%
viability, T/C [23]: 16.8%
viability, T/C [24]: 1.34%
viability, T/C [35]: 0.84%
viability, T/C [36]: 0.85%

Nc1ccn(C2OC(CO)C(O)C2(F)F)c(=O)n1 (stereo not drawn) + CNC(=O)c1ccc(Nc2nc(OC3CCCC3)c3c(-c4ccc5nc(C)oc5c4)c[nH]c3n2)c(OC)c1
IC50 (second compound 0.0316 µM): > 10000 nM
IC50 (second compound 0.1 µM): > 10000 nM
IC50 (second compound 0.316 µM): > 10000 nM
IC50 (second compound 1 µM): 2760 nM
IC50 (second compound 3.16 µM): 279 nM
IC50 (second compound 10 µM): 60.6 nM
viability, T/C [1]: 94.5%
viability, T/C [2]: 80%
viability, T/C [3]: 67%
viability, T/C [4]: 65.4%
viability, T/C [25]: 68.5%
viability, T/C [26]: 58.5%
viability, T/C [5]: 75.3%
viability, T/C [6]: 80.7%
viability, T/C [7]: 64.6%
viability, T/C [8]: 62.9%
viability, T/C [27]: 60.7%
viability, T/C [28]: 54%
viability, T/C [9]: 63.3%
viability, T/C [10]: 74.2%
viability, T/C [11]: 69.9%
viability, T/C [12]: 54.8%
viability, T/C [29]: 59.6%
viability, T/C [30]: 65.2%
viability, T/C [13]: 66.4%
viability, T/C [14]: 62.5%
viability, T/C [15]: 66.6%
viability, T/C [16]: 53.5%
viability, T/C [31]: 44.4%
viability, T/C [32]: 54.7%
viability, T/C [17]: 63.1%
viability, T/C [18]: 59.8%
viability, T/C [19]: 49.2%
viability, T/C [20]: 41%
viability, T/C [33]: 42.1%
viability, T/C [34]: 43.7%
viability, T/C [21]: 52.8%
viability, T/C [22]: 49%
viability, T/C [23]: 44.4%
viability, T/C [24]: 39.6%
viability, T/C [35]: 40.6%
viability, T/C [36]: 43.1%

O=c1[nH]cc(F)c(=O)[nH]1 + CNC(=O)c1ccc(Nc2nc(OC3CCCC3)c3c(-c4ccc5nc(C)oc5c4)c[nH]c3n2)c(OC)c1
IC50 (second compound 0.0316 µM): > 10000 nM
IC50 (second compound 0.1 µM): > 10000 nM
IC50 (second compound 0.316 µM): > 10000 nM
IC50 (second compound 1 µM): 6380 nM
IC50 (second compound 3.16 µM): > 10000 nM
IC50 (second compound 10 µM): 1210 nM
viability, T/C [1]: 102%
viability, T/C [2]: 88.6%
viability, T/C [3]: 92.7%
viability, T/C [4]: 85.3%
viability, T/C [25]: 72.2%
viability, T/C [26]: 61.8%
viability, T/C [5]: 74.8%
viability, T/C [6]: 83.1%
viability, T/C [7]: 76.2%
viability, T/C [8]: 81.8%
viability, T/C [27]: 70.7%
viability, T/C [28]: 58.7%
viability, T/C [9]: 78.5%
viability, T/C [10]: 76.4%
viability, T/C [11]: 68.2%
viability, T/C [12]: 70.4%
viability, T/C [29]: 67.1%
viability, T/C [30]: 54.6%
viability, T/C [13]: 73.7%
viability, T/C [14]: 67.3%
viability, T/C [15]: 71.5%
viability, T/C [16]: 69%
viability, T/C [31]: 56.9%
viability, T/C [32]: 45.6%
viability, T/C [17]: 63.5%
viability, T/C [18]: 58.6%
viability, T/C [19]: 64%
viability, T/C [20]: 54%
viability, T/C [33]: 55.2%
viability, T/C [34]: 48.5%
viability, T/C [21]: 51.8%
viability, T/C [22]: 58.5%
viability, T/C [23]: 54.2%
viability, T/C [24]: 51.8%
viability, T/C [35]: 41.3%
viability, T/C [36]: 39%
